In publication PMC10518257 (Nature Cancer, 2023):
Where “and” joins values, the source holds several entries; their conditions need not be identical. Equal values may be shown once. Read-outs that look alike come from different tables or passages of the source.

What was measured:
[1] = system: Ba/F3 cells; experiment: Growth inhibition assay in Ba/F3 cells (CellTiter-Glo, 72 h); assay type: cell-based; details: Mus musculus
[2] = system: Ba/F3 cells expressing KIF5B–RET^V804L; experiment: as above; assay type: cell-based; details: replicate sets
[3] = system: LUAD-0057BS1 cells; experiment: Growth inhibition (alamarBlue, 96 h); assay type: cell-based, human; details: for raw viability signal (Source Data Fig. 3b-c): LUAD-0057BS1, replicate sets
[4] = system: MMNK1 cholangiocytes; experiment: Growth inhibition (alamarBlue, 96 h); assay type: cell-based, human; details: MMNK, replicates
[5] = system: phosphorylation of RET^G810R, RET^G810S and RET^G810C in Ba/F3 cells; experiment: Western blotting of RET phosphorylation in Ba/F3 KIF5B–RET cells; assay type: cell-based; details: 1 h, western blot, 100 nM
[6] = system: HBECp53-EV cells; experiment: Growth inhibition (alamarBlue, 96 h); assay type: cell-based, human; details: for raw viability signal (Source Data Fig. 3b-c): HBEC-EV, replicate sets
[7] = system: LUAD-0087AS2 PDX; experiment: PDX efficacy study; details: for Change in tumor volume (% from base line): Fig. 6a LUAD-0087AS2; for Change in tumor volume (% from base line) / Tumor volume: individual animals; for Area Under Curve Mean: Fig. 6a LUAD-0087AS2 tumor growth; for Tumor volume: LUAD-0087AS2
[8] = system: HBECp53-RET cells (CCDC6-RET fusion); experiment: Growth inhibition (alamarBlue, 96 h); assay type: cell-based, human; details: for raw viability signal (Source Data Fig. 3b-c): HBEC-RET, replicate sets
[9] = Animal weight of tumor-bearing mice
[10] = Homo sapiens, 96 h, read-out: IC50 for Inhibition of Growth (95% CI)

SMILES: COCc1ccc(NC(=O)c2c(C#CCN3CCOCC3)n(C3(C)CC3)c3ncnc(N)c23)cc1 [Vepafestinib, 4-amino-N-[4-(methoxymethyl)phenyl]-7-(1-methylcyclopropyl)-6-[3-(morpholin-4-yl)prop-1-yn-1-yl]-7H-pyrrolo[2,3-d]pyrimidine-5-carboxamide]
- GI50 ([1]; BaF3, 72 h, read-out: GI50 value (Mean ± SD), Ba/F3, CellTiter-Glo, 72 h): > 10000 nM
- GI50 ([1]; BaF3, Ba/F3 (parental), replicate Sets 1-3): > 10000 nM
- GI50 ([2]; Ba/3-KIF5B-RET-V804L): 21.4 nM
- GI50 ([2]; Mus musculus, BaF3, Ba/3-KIF5B-RET-V804L): 25.9 nM
- IC50 [3, 10]: 60 nM
- raw viability signal (Source Data Fig. 3b-c) ([3]; 0.01 nM): 17419.2 and 15925.4 and 18689.8 and 23015.1
- raw viability signal (Source Data Fig. 3b-c) ([3]; 0.1 nM): 17721.3 and 15866.4 and 19298.6 and 21993.3
- raw viability signal (Source Data Fig. 3b-c) ([3]; 1 nM): 17137.9 and 16657.5 and 19117.5 and 21130.9
- raw viability signal (Source Data Fig. 3b-c) ([3]; 10 nM): 14331 and 15273.4 and 17077.7 and 19439.8
- raw viability signal (Source Data Fig. 3b-c) ([3]; 100 nM): 7158.2 and 6135.51 and 7993.83 and 7600.63
- raw viability signal (Source Data Fig. 3b-c) ([3]; 1000 nM): 3333.45 and 1678.22 and 2095.91 and 2070.83
- raw viability signal (Source Data Fig. 3b-c) ([3]; 10000 nM): 2605.9 and 881.24 and 1045.29 and 1424.56
- raw viability signal (Source Data Fig. 3b-c) ([4]; 0.01 nM): 15390 and 15865.6
- raw viability signal (Source Data Fig. 3b-c) ([4]; 0.1 nM): 14815.4 and 16483.3
- raw viability signal (Source Data Fig. 3b-c) ([4]; 1 nM): 13973.1 and 15595
- raw viability signal (Source Data Fig. 3b-c) ([4]; 10 nM): 13948.4 and 14647.6
- raw viability signal (Source Data Fig. 3b-c) ([4]; 100 nM): 13576.5 and 14248.6
- raw viability signal (Source Data Fig. 3b-c) ([4]; 1000 nM): 9712.9 and 10190.9
- raw viability signal (Source Data Fig. 3b-c) ([4]; 10000 nM): 13883.8 and 13507.1
- suppression of phosphorylation of RET^G810R, RET^G810S and RET^G810C [5]: near-complete inhibition
- raw viability signal (Source Data Fig. 3b-c) ([6]; 0.01 nM): 27037 and 29740.2
- raw viability signal (Source Data Fig. 3b-c) ([6]; 0.1 nM): 19425.3 (2×) and 27020.1 and 29597.7
- raw viability signal (Source Data Fig. 3b-c) ([6]; 1 nM): 18975.7 (2×) and 23808.3 and 29292.2
- raw viability signal (Source Data Fig. 3b-c) ([6]; 10 nM): 19412.6 (2×) and 25517.4 and 26617.3
- raw viability signal (Source Data Fig. 3b-c) ([6]; 100 nM): 19354.5 (2×) and 27120.8 and 27640.4
- raw viability signal (Source Data Fig. 3b-c) ([6]; 1000 nM): 20047.9 (2×) and 18738.8 and 27632.3
- raw viability signal (Source Data Fig. 3b-c) ([6]; 10000 nM): 7853.82 (2×) and 1053.31 and 23430.8
- IC50 [6, 10]: 7900 nM
- Change in tumor volume (% from base line) ([7]; 50 mg/kg BID): 87.879% and 58.129% and 44.45% and -5.144% and -25.229%
- Change in tumor volume (% from base line) ([7]; 100 mg/kg QD): 17.228% and 8.714% and 8.637% and 6.644% and -4.481%
- Area Under Curve Mean ([7]; 50 mg/kg BID): 607.7
- Area Under Curve Mean ([7]; 100 mg/kg QD): -475
- Tumor volume ([7]; 50 mg/kg BID, treatment day 14): 176.99 and 151.71 and 143.39 and 141.55 and 122.52
- Tumor volume ([7]; 50 mg/kg BID, treatment day 17): 184.47 and 160.85 and 154.42 and 148.22 and 128.59
- Tumor volume ([7]; 50 mg/kg BID, treatment day 21): 153.78 and 172.55 and 161.49 and 152.64 and 130.54
- Tumor volume ([7]; 50 mg/kg BID, treatment day 24): 80.7 and 118.01 and 87.03 and 107.44 and 78.99
- Tumor volume ([7]; 50 mg/kg BID, treatment day 29): 140.89 (2×) and 167.28 and 145.47 and 91.61
- Tumor volume ([7]; 50 mg/kg BID, treatment day 32): 98.2 and 131.95 and 113.98 and 102.07 and 83.83
- Tumor volume ([7]; 50 mg/kg BID, treatment day 35): 98.2 and 165.14 and 137.6 and 146.01 and 86.78
- Tumor volume ([7]; 50 mg/kg BID, treatment day 38): 108.88 and 165.14 and 151.71 and 155.09 and 86.78
- Tumor volume ([7]; 50 mg/kg BID, treatment day 42): 118.01 and 213.8 and 176.98 and 176.74 and 91.61
- Tumor volume ([7]; 50 mg/kg BID, treatment day 45): 118.01 and 222.58 and 176.98 and 181.58 and 91.61
- Tumor volume ([7]; 100 mg/kg QD, treatment day 14): 102.07 and 91.61 and 107.17 and 110.58 and 103.77
- Tumor volume ([7]; 100 mg/kg QD, treatment day 17): 102.07 and 81.71 and 90.28 and 103.77 (2×)
- Tumor volume ([7]; 100 mg/kg QD, treatment day 21): 107.17 (2×) and 113.1 and 118.75 and 114.83
- Tumor volume ([7]; 100 mg/kg QD, treatment day 24): 93.59 and 83.07 and 77.95 and 87.03 and 98.2
- Tumor volume ([7]; 100 mg/kg QD, treatment day 29): 100.37 and 99.78 and 80.89 and 91.87 and 98.2
- Tumor volume ([7]; 100 mg/kg QD, treatment day 32): 103.92 and 108.88 and 90.28 and 95.24 and 107.17
- Tumor volume ([7]; 100 mg/kg QD, treatment day 35): 109.36 and 120.29 and 95.03 and 107.44 and 110.58
- Tumor volume ([7]; 100 mg/kg QD, treatment day 38): 109.36 and 120.29 and 114.83 and 118.75 and 122.12
- Tumor volume ([7]; 100 mg/kg QD, treatment day 42): 109.36 and 126.29 and 116.65 and 126.64 and 138.88
- Tumor volume ([7]; 100 mg/kg QD, treatment day 45): 109.36 and 126.29 and 120.64 and 126.64 and 138.88
- raw viability signal (Source Data Fig. 3b-c) ([8]; 0.01 nM): 18957.1 and 8244.84 and 10678.9 and 16541.7
- raw viability signal (Source Data Fig. 3b-c) ([8]; 0.1 nM): 17482 and 10966 and 10873.4 and 16651.3
- raw viability signal (Source Data Fig. 3b-c) ([8]; 1 nM): 17298.8 and 10767.5 and 11130.6 and 16468.7
- raw viability signal (Source Data Fig. 3b-c) ([8]; 10 nM): 5536.96 and 10230.4 and 9156.41 and 16208.5
- raw viability signal (Source Data Fig. 3b-c) ([8]; 100 nM): 4544.29 and 6087.71 and 3084.29 and 6640.5
- raw viability signal (Source Data Fig. 3b-c) ([8]; 1000 nM): 2966.02 and 1973.98 and 3130.94 and 5863.55
- raw viability signal (Source Data Fig. 3b-c) ([8]; 10000 nM): 3124.48 and 1006.63 and 1869.57 and 4627.96
- IC50 ([8]; Homo sapiens, 96 h, read-out: IC50 for Inhibition of Growth (95% CI), HBECp53-RET, alamarBlue, 96 h): 65 nM
- Animal Weight, Mean ([9]; Ba/F3-KIF5B::RET (Fig 8e), 25 mg/kg BID, day 0): 25.1 g
- Animal Weight, Mean ([9]; Ba/F3-KIF5B::RET (Fig 8e), 25 mg/kg BID, day 4): 27.6 g
- Animal Weight, Mean ([9]; Ba/F3-KIF5B::RET (Fig 8e), 25 mg/kg BID, day 8): 27.2 g
- Animal Weight, Mean ([9]; Ba/F3-KIF5B::RET (Fig 8e), 25 mg/kg BID, day 11): 27.1 g
- Animal Weight, Mean ([9]; Ba/F3-KIF5B::RET (Fig 8e), 25 mg/kg BID, day 15): 27.6 g
- Animal Weight, Mean ([9]; Ba/F3-KIF5B::RET (Fig 8e), 50 mg/kg BID, day 0): 25.4 g
- Animal Weight, Mean ([9]; Ba/F3-KIF5B::RET (Fig 8e), 50 mg/kg BID, day 4): 27.8 g
- Animal Weight, Mean ([9]; Ba/F3-KIF5B::RET (Fig 8e), 50 mg/kg BID, day 8): 26.3 g
- Animal Weight, Mean ([9]; Ba/F3-KIF5B::RET (Fig 8e), 50 mg/kg BID, day 11): 25.3 g
- Animal Weight, Mean ([9]; Ba/F3-KIF5B::RET (Fig 8e), 50 mg/kg BID, day 15): 25.9 g
- Animal Weight, Mean ([9]; Ba/F3-KIF5B::RET G810R (Fig 8f), Vepafestinib 10 mg/kg BID, day 1): 25.86 g
- Animal Weight, Mean ([9]; Ba/F3-KIF5B::RET G810R (Fig 8f), Vepafestinib 10 mg/kg BID, day 4): 25.30 g
- Animal Weight, Mean ([9]; Ba/F3-KIF5B::RET G810R (Fig 8f), Vepafestinib 10 mg/kg BID, day 8): 24.90 g
- Animal Weight, Mean ([9]; Ba/F3-KIF5B::RET G810R (Fig 8f), Vepafestinib 10 mg/kg BID, day 11): 25.72 g
- Animal Weight, Mean ([9]; Ba/F3-KIF5B::RET G810R (Fig 8f), Vepafestinib 10 mg/kg BID, day 15): 25.22 g
- Animal Weight, Mean ([9]; Ba/F3-KIF5B::RET G810R (Fig 8g), Vepafestinib 50 mg/kg BID, day 1): 23.9 g
- Animal Weight, Mean ([9]; Ba/F3-KIF5B::RET G810R (Fig 8g), Vepafestinib 50 mg/kg BID, day 4): 24.7 g
- Animal Weight, Mean ([9]; Ba/F3-KIF5B::RET G810R (Fig 8g), Vepafestinib 50 mg/kg BID, day 8): 24.9 g
- Animal Weight, Mean ([9]; Ba/F3-KIF5B::RET G810R (Fig 8g), Vepafestinib 50 mg/kg BID, day 11): 24.3 g
- Animal Weight, Mean ([9]; Ba/F3-KIF5B::RET G810R (Fig 8g), Vepafestinib 50 mg/kg BID, day 15): 24.2 g
- Animal Weight (g), Mean ([9]; Ba/F3-KIF5B::RET tumor-bearing mice (Ext. Data Fig 8i), 50 mg/kg BID, day 1): 25.8 g
- Animal Weight (g), Mean ([9]; Ba/F3-KIF5B::RET tumor-bearing mice (Ext. Data Fig 8i), 50 mg/kg BID, day 4): 26.2 g
- Animal Weight (g), Mean ([9]; Ba/F3-KIF5B::RET tumor-bearing mice (Ext. Data Fig 8i), 50 mg/kg BID, day 8): 26.0 g
- Animal Weight (g), Mean ([9]; Ba/F3-KIF5B::RET tumor-bearing mice (Ext. Data Fig 8i), 50 mg/kg BID, day 11): 25.3 g
- Animal Weight (g), Mean ([9]; Ba/F3-KIF5B::RET tumor-bearing mice (Ext. Data Fig 8i), 50 mg/kg BID, day 15): 26.9 g
- Animal Weight (g), Mean ([9]; Ba/F3-KIF5B::RET tumor-bearing mice (Ext. Data Fig 8h), 50 mg/kg BID, day 1): 28.4 g
- Animal Weight (g), Mean ([9]; Ba/F3-KIF5B::RET tumor-bearing mice (Ext. Data Fig 8h), 50 mg/kg BID, day 4): 28.5 g
